Literature values as cited in PMC7373161, “Impact of Food and Drink Administration Vehicles on Paediatric Formulation Performance: Part 1—Effects on Solubility of Poorly Soluble Drugs” (AAPS PharmSciTech, 2020).

isoelectric point (pI): 4.3 pH
SMILES: Nc1ccc(O)c(C(=O)O)c1 [mesalazine]
